Source: BindingDB's records for doi:10.1021/acsmedchemlett.9b00575 (Duke University, 2020)

Tests used:
[1] = target: D(2) dopamine receptor (Homo sapiens, UniProt P14416); test: Agonist activity at C-terminal RLuc8-fused D2 long receptor (unknown origin) transfected in human HEK293T cells co-expressing N-terminal Venus-tagged beta-arrestin2 assessed as increase in beta-arrestin2 recruitment measured after 5 mins in presence of coelenterazine H by BRET assay
[2] = target: D(1A) dopamine receptor (Homo sapiens, UniProt P21728); test: Agonist activity at D1R (unknown origin) transfected in human HEK293T cells assessed as increase in cAMP accumulation incubated for 2 hrs by cAMP Glo-sensor assay
D(1A) dopamine receptor, sequence (P21728 whole entry): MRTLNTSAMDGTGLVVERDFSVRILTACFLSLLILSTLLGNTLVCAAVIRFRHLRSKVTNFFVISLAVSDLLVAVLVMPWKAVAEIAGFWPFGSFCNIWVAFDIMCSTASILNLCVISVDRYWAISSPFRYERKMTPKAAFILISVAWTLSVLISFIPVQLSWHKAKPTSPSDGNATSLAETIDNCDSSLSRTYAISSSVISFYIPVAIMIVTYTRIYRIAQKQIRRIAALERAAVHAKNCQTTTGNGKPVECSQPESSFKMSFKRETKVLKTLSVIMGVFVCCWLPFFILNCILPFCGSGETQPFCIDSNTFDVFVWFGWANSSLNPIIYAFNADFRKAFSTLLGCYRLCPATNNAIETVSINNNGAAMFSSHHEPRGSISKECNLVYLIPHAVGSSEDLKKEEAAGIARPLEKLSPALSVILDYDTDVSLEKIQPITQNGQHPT

D(2) dopamine receptor, sequence (P14416 whole entry, the tested form may be a part): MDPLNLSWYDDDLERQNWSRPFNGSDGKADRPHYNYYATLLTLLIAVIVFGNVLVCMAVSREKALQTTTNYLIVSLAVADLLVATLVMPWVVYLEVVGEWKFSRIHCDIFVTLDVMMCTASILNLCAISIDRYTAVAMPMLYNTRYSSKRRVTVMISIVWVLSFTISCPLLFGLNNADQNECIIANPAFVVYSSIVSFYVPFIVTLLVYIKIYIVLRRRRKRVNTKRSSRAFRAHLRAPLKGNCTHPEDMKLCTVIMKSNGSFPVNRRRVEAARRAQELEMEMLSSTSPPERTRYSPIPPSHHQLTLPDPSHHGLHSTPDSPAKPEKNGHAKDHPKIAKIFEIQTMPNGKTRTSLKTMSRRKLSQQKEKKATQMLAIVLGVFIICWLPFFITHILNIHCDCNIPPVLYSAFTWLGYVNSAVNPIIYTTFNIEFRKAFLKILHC

Compound	EC50 [1]	EC50 [2]
CC(=O)Oc1c(Br)cc2c(c1OC(C)=O)-c1cccc3c1[C@@H](C2)N(C)CC3	1260 nM	–
CN1CCc2cccc3c2[C@H]1Cc1ccc2c(c1-3)OCO2	–	100 nM
